Assays:
anesthetized dogs = test: Evaluation of cardiovascular dynamics and electrocardiogram in anesthetized dogs; assay type: in vivo, dog; details: single administration; for HR / LVdP/dt / PQ interval / QRS interval / QTc interval / mAP: percent change vs value prior to administration; for effects on the cardiovascular system: summary of Tables 4 to 8
Text: <Evaluation of Cardiovascular Dynamics and Electrocardiogram in Anesthetized Dogs> Method Anesthetized dogs were used for the experiment. After isolating the […], a microchip pressure transducer catheter was inserted therein, and the tip was situated near the aortic orifice and in the left ventricle, for measurement of the arterial pressure (AP) and left ventricular pressure (LVP). The LVP was differentiated using a differentiation unit, and the maximum value of the first derivative of the left ventricular pressure ([…] used as the index of the […] contractility. The heart rate (HR) was measured using an instantaneous heart rate counter, with the LVP waveforms as the trigger. A needle electrode was fixed to the right anterior limb and left and right posterior limbs, and a standard II-lead electrocardiogram was taken. The parameters were recorded on a recording sheet. The test substance was administered through the venous catheter inserted in the femoral vein. Administration of Test Substance and Recording Single Administration: The test substance was administered through the catheter for 1 minute. The electrocardiogram was recorded at 2 minutes after administration, and the change in the cardiovascular dynamic was recorded continuously for 10 minutes after the administration. After 10 minutes, the dose was increased and the recording was repeated. Continuous Intravenous Infusion: The test substance was administered through the catheter for a period of one minute, and then a sustained dose was administered by continuous intravenous infusion. The electrocardiogram was recorded at the 5 and 10 minute points, and the change in cardiovascular dynamic was recorded continuously for 10 minutes from the start of administration. After 10 minutes, the dose was increased and the recording was repeated. Analysis The HR, mean arterial pressure (mAP), LVdP/dtmax and electrocardiogram parameters (RR interval, PQ interval, QRS interval, QT interval) were read from the recording sheet. The QT interval was heart rate-corrected and represented as the QTc interval.

[1] = test system: left saphenous nerve of rats (ectopic firing); test: Inhibition of ectopic firing; assay type: in vivo; details: Rattus norvegicus, iv; rats with cut left saphenous nerve, urethane anesthesia, compound via catheter in right cervical vein, number of firings in 10 seconds; read-out: Inhibition of ectopic firing (ID50)
Method in brief: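 Rat left saphenous nerve transected near the knee (~3 mm excised); recorded more than a week later under urethane (1 g/kg) anesthesia. Compound given via right cervical vein catheter. Ectopic firing recorded with platinum hook electrode, scored as number of firings in 10 seconds.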

SMILES | HR (anesthetized dogs; dose 1 mg/kg weight) [%] | LVdP/dt (anesthetized dogs; dose 1 mg/kg weight) [%] | PQ interval (anesthetized dogs; dose 1 mg/kg weight) [%] | QTc interval (anesthetized dogs; dose 1 mg/kg weight) [%] | mAP (anesthetized dogs; dose 1 mg/kg weight) [%] | HR (anesthetized dogs; dose 3 mg/kg weight) [%] | LVdP/dt (anesthetized dogs; dose 3 mg/kg weight) [%] | PQ interval (anesthetized dogs; dose 3 mg/kg weight) [%] | QTc interval (anesthetized dogs; dose 3 mg/kg weight) [%] | mAP (anesthetized dogs; dose 3 mg/kg weight) [%] | effects on the cardiovascular system (anesthetized dogs) | other results
O=C(NCC1CCCCN1)c1cc(OCC(F)(F)F)ccc1OCC(F)(F)F (centres unmarked) [Flecainide] | −8.6 | −18.2 | 8.8 | 2.3 | −14.2 | −24.8 | −56.9 | 36.1 | 9.3 | −42.9 | exhibited effects on the cardiovascular system | QRS interval (anesthetized dogs; dose 1 mg/kg weight): 6.4%; QRS interval (anesthetized dogs; dose 3 mg/kg weight): 37.1%
Cc1cccc(C)c1OCC(C)N (centres unmarked) [Mexiletine] | – | – | – | – | – | – | – | – | – | – | exhibited effects on the cardiovascular system | HR (anesthetized dogs; dose 2.2 mg/kg weight): −2.8%; LVdP/dt (anesthetized dogs; dose 2.2 mg/kg weight): −20.8%; PQ interval (anesthetized dogs; dose 2.2 mg/kg weight): 0.7%; QRS interval (anesthetized dogs; dose 2.2 mg/kg weight): 1.8%; QTc interval (anesthetized dogs; dose 2.2 mg/kg weight): −3.0%; mAP (anesthetized dogs; dose 2.2 mg/kg weight): −6.2%; HR (anesthetized dogs; dose 6.6 mg/kg weight): −10.6%; LVdP/dt (anesthetized dogs; dose 6.6 mg/kg weight): −47.8%; PQ interval (anesthetized dogs; dose 6.6 mg/kg weight): 3.4%; QRS interval (anesthetized dogs; dose 6.6 mg/kg weight): 6.3%; QTc interval (anesthetized dogs; dose 6.6 mg/kg weight): −4.6%; mAP (anesthetized dogs; dose 6.6 mg/kg weight): −44.2%; ED50 [1]: 1 to 3 mg/kg
Cc1cccc(C)c1NC(=O)CC12CCCN1CCC2 [Pilsicainide] | −1.0 | −20.6 | 17.4 | 4.6 | −3.2 | −5.0 | −31.7 | 55.1 | 5.3 | −8.2 | exhibited effects on the cardiovascular system | –

From US20050245527A1, “Nitrogen containing heterocyclic compounds and medicines containing the same” (priority 2002, published 2005)
